# Counter-ions that a name gives are not always drawn.
# Key:
# S. aureus 209P = test: Minimum inhibitory concentration (MIC) by NCCLS agar dilution technique; assay type: cell-based
# Experimental: (§1) The minimum inhibitory concentration (MIC) was determined for each compound by NCCLS agar dilution technique (Methods for dilution antimicrobial susceptibility tests for bacteria that grow aerobically; approved standard-sixth edition. […] The results are shown in Table below and indicate that the compounds of the present invention have high antimicrobial activity.
# S. pneumoniae IID 553 = test: as above; assay type: cell-based
# Experimental: as §1
Structure (SMILES),"minimum inhibitory concentration (MIC), in vitro antimicrobial activity (S. aureus 209P)","minimum inhibitory concentration (MIC), in vitro antimicrobial activity (S. pneumoniae IID 553)"
"CCCC[C@]1(C)C[C@@H](OC(=O)NC(=O)[C@H]2CN3CC[C@@H]2C3)[C@@]2(C)C3C(=O)CCC3(CC[C@H]2C)[C@@H](C)[C@@H]1O (stereo partly drawn) [Example 18, 12-butyl-14-{(3R,4S)-1-azabicyclo[2.2.1]heptane-3-carbonyl}car bamoyl-12-desethenylmutilin]",0.125,2
"C=C[C@]1(C)C[C@@H](OC(=O)CSCCN(CC)CC)[C@]2(C)[C@H](C)CC[C@]3(CCC(=O)[C@H]32)[C@@H](C)[C@@H]1O [tiamulin, reference compound]",0.06-0.125,1-2
"CCC[C@]1(C)C[C@@H](OC(=O)NC(=O)[C@H]2CN3CC[C@@H]2C3)[C@@]2(C)C3C(=O)CCC3(CC[C@H]2C)[C@@H](C)[C@@H]1O (stereo partly drawn) [Example 17, 14-{(3R,4S)-1-azabicyclo[2.2.1]heptane-3-carbonyl}carbamoyl-12-desethenyl-12-propylmutilin hydrochloride]",0.125,2
"C/C=C/C[C@]1(C)C[C@@H](OC(=O)NC(=O)[C@H]2CN3CC[C@@H]2C3)[C@@]2(C)C3C(=O)CCC3(CC[C@H]2C)[C@@H](C)[C@@H]1O (stereo partly drawn) [Example 20, 14-{(3R,4S)-1-azabicyclo[2.2.1]heptane-3-carbonyl}carbamoyl-12-[(E)-2-butene-4-yl]-12-desethenylmutilin]",0.06,0.5
"C=CCC1(C)CC(OC(=O)NC(=O)C2CN3CCC2C3)C2(C)C(C)CCC3(CCC(=O)C32)C(C)C1O.Cl [Example 4, 14-{(3R,4S)-1-azabicyclo[2.2.1]heptane-3-carbonyl}carbamoyl-12-desethenyl-12-(1-propene-3-yl)mutilin hydrochloride]",0.125,0.5
"CC1C(O)C(C)(C)CC(OC(=O)NC(=O)C2CN3CCC2C3)C2(C)C(C)CCC13CCC(=O)C32.Cl [Example 2, 14-{(3R,4S)-1-azabicyclo[2.2.1]heptane-3-carbonyl}carbamoyl-12-desethenyl-12-methylmutilin hydrochloride]",0.125,1

# — US20080221330A1, “Mutilin-Derivative Substituted at Position 12” (priority 2004, published 2008)
